Assay results from patent US20030181335A1, “Novel 3- (4-cyanophenyl) uracils” (priority 1995, published 2003).

Tests used:
Assay in all cases: Greenhouse herbicidal activity, post-emergence
Type in all cases: in vivo
Conditions in all cases: application rate 0.0156 or 0.0078 kg of a.i./ha
Ipomoea subspecies = system: Ipomoea subspecies
Source text: (§1) The culture containers used were plastic flower pots containing loamy sand with approximately 3.0% of humus as the substrate. The seeds of the test plants were sown separately for each species.
(§2) For the post-emergence treatment, the test plants were first grown to a plant height of 3 to 15 cm, depending on the growth form, and only then treated with the active ingredients which were suspended or emulsified in water. The test plants were either sown directly and grown in the same containers, or grown separately as seedlings and transplanted to the test containers a few days prior to treatment. The application rate for the post-emergence treatment was 0.0156 or 0.0078 kg of a.i. (active ingredient) per ha.
(§3) The plants were kept at from 10-25° C. or 20-35° C., depending on the species. The test period extended to 2-4 weeks. During this time, the plants were tended and their response to individual treatments was evaluated.
(§4) Evaluation was carried out using a scale from 0 to 100. 100 means no emergence of the plants, or complete destruction of at least the aerial parts, and 0 means no damage or normal course of growth.
(§5) The plants used for the greenhouse experiments were the following species: […]

Galium aparine = system: Galium aparine
Source text: as §1, §2, §3, §4, §5

Abutilon theophrasti = system: Abutilon theophrasti
Source text: as §1, §2, §3, §4, §5

Solanum nigrum = system: Solanum nigrum
Source text: as §1, §2, §3, §4, §5

COc1cc(-n2c(=O)cc(C(F)(F)F)n(N)c2=O)ccc1C#N [Compound No. I.02, 1-Amino-3-[4-cyano-3-methoxyphenyl]-6-trifluoromethyl-1,2,3,4-tetrahydropyrimidine-2,4-dione]
very effective: herbicidal action against Ipomoea subspecies (morningglory) (Ipomoea subspecies) | herbicidal action against Galium aparine (catchweed bedstraw) (Galium aparine) | herbicidal action against Abutilon theophrasti (velvet leaf) (Abutilon theophrasti) | herbicidal action against Solanum nigrum (black nightshade) (Solanum nigrum)
